Key:
UndA = molecular target: T1, UndA (Shewanella sp. HRCR_06, UniProt F8UWD6); assay: 1H NMR titration (heme methyl shifts); type: binding; conditions: oxidized protein; 20 mM potassium phosphate pH 7.6, 100 mM KCl, 2H2O, 25 °C
T1 construct: recombinant soluble undecaheme cytochrome from E. coli JM109(DE3) periplasm with pEC86; stop codon after the gene removes V5 and His6 tags; C-terminus encoded by primer GVDKVHPVKY

OmcA [1] = molecular target: T2, OmcA (Shewanella oneidensis, UniProt Q8EG33); assay: 1H NMR titration (heme methyl shifts); type: binding; conditions: oxidized protein; 20 mM potassium phosphate pH 7.6, 100 mM KCl, 2H2O, 25 °C
T2 construct: recombinant soluble decaheme cytochrome expressed in S. oneidensis MR-1 from pBAD202/D-TOPO; stop codon after the gene removes V5 and His6 tags; C-terminus encoded by primer ...AIDGSTR N not altered (ends MEAHGN)

MtrC [2] = molecular target: T3, MtrC (Shewanella oneidensis, UniProt Q8EG34); assay: 1H NMR titration (heme methyl shifts); type: binding; conditions: oxidized protein; 20 mM potassium phosphate pH 7.6, 100 mM KCl, 2H2O, 25 °C
T3 construct: recombinant soluble decaheme cytochrome from E. coli JM109(DE3) periplasm with pEC86; stop codon after the gene removes V5 and His6 tags; C-terminus encoded by primer HTKVKM

OmcA [3] = molecular target: T2, OmcA; assay: […] NMR titration; type: binding; conditions: read-out: βd
MtrC [4] = molecular target: T3, MtrC; assay: […] NMR titration; type: binding; conditions: read-out: βd
MtrF = molecular target: T4, MtrF (Shewanella oneidensis, UniProt Q8EG32); assay: stopped-flow oxidation of reduced cytochrome at […] nm; type: biochemical; conditions: electron acceptor; 11 μM PMS, 0.31 μM protein, pH 7.6, 25 °C, anaerobic
T4 construct: recombinant soluble decaheme cytochrome expressed in S. oneidensis MR-1; stop codon after the gene removes V5 and His6 tags
T4 sequence (Q8EG32 24-639): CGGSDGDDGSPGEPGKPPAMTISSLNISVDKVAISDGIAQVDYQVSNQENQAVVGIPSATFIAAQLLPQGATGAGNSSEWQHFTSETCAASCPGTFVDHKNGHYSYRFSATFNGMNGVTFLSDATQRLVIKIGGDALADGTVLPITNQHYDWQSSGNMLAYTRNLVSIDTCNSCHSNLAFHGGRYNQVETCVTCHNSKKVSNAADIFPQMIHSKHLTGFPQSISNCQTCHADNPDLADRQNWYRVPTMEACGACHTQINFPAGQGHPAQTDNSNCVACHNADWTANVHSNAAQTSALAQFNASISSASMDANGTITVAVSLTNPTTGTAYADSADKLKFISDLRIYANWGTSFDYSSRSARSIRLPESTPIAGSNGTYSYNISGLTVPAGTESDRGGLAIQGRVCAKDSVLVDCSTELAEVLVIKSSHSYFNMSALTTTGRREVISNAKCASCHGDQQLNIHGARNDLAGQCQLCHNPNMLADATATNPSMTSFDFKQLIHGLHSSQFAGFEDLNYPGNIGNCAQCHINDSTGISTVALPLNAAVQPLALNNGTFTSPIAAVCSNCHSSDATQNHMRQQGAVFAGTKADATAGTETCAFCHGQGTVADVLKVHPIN

T3 sequence (Q8EG34 entry or part of it): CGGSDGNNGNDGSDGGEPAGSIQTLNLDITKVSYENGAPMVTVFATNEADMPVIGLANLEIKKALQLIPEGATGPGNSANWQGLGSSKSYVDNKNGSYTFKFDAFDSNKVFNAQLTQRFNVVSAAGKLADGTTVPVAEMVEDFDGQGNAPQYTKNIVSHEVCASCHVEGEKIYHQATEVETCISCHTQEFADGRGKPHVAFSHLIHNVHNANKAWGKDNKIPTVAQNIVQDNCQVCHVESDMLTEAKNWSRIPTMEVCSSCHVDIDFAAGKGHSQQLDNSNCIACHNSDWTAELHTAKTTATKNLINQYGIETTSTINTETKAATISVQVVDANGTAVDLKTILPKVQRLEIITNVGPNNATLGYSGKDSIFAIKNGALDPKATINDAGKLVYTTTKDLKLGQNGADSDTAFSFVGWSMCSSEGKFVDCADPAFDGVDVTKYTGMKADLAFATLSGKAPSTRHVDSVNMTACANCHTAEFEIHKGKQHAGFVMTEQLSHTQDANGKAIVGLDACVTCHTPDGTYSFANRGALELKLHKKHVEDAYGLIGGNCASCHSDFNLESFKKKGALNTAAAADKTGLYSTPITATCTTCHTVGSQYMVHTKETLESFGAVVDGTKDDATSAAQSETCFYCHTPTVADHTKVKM
T2 sequence (Q8EG33 entry or part of it): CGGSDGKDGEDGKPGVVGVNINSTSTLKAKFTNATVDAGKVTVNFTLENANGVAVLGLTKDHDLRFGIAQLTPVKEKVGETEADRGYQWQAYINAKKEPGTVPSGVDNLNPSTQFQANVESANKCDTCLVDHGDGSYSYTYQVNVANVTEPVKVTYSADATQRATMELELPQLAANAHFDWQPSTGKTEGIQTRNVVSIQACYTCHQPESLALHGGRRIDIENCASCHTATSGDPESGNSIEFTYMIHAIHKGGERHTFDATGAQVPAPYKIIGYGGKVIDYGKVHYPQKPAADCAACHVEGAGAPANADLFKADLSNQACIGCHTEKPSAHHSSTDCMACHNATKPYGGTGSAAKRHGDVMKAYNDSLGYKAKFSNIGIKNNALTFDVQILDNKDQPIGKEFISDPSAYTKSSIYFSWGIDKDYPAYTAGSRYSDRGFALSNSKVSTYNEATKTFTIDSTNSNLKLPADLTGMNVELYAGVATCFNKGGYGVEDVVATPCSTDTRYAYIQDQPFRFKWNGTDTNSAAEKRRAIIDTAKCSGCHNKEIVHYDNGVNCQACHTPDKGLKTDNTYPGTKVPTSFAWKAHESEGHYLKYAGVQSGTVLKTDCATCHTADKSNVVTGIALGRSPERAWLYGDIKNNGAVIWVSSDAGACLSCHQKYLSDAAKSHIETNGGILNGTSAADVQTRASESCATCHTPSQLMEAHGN
T1 sequence (F8UWD6 entry or part of it): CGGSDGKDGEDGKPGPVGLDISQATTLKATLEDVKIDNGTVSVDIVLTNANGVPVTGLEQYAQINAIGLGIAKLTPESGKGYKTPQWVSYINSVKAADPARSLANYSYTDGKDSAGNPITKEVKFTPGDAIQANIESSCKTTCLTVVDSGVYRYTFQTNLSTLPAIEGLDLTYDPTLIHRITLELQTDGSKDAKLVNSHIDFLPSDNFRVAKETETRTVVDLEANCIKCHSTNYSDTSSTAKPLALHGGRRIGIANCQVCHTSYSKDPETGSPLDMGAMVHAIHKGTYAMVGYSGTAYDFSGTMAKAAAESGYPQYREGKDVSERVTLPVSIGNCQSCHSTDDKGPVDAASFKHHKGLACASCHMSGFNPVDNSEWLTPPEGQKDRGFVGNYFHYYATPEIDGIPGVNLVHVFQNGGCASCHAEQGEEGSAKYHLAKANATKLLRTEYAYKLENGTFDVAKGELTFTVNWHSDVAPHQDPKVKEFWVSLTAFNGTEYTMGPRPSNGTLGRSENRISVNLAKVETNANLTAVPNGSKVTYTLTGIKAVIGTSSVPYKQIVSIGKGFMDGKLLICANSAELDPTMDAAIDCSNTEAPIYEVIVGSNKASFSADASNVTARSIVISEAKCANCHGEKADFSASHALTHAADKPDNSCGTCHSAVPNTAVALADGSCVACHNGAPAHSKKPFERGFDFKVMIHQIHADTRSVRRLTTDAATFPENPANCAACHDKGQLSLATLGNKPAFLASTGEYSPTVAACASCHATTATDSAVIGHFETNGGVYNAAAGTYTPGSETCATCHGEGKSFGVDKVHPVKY

Kd (OmcA [3]) [µM] | Kd (MtrC [4]) [µM] | SMILES | 1H NMR titration (heme methyl shifts) (UndA) | 1H NMR titration (heme methyl shifts) (OmcA [1]) | 1H NMR titration (heme methyl shifts) (MtrC [2]) | stopped-flow oxidation of reduced cytochrome at 552 nm (MtrF)
 |  | O=C1c2ccc(S(=O)(=O)O)cc2C(=O)c2ccc(S(=O)(=O)O)cc21 [AQDS, Anthraquinone 2,6-disulfonate] | the addition of AQDS promoted noticeable spectral changes in OmcA, MtrC, and UndA | the addition of AQDS promoted noticeable spectral changes in OmcA, MtrC, and UndA | the addition of AQDS promoted noticeable spectral changes in OmcA, MtrC, and UndA | 
29 | 255 | Cc1cc2nc3c(=O)[nH]c(=O)nc-3n(C[C@H](O)[C@H](O)[C@H](O)COP(=O)(O)O)c2cc1C [FMN, Flavin mononucleotide] |  |  |  | 
 |  | C[n+]1c2ccccc2nc2ccccc21 [PMS, Phenazine methosulfate] |  | RF, FMN, and PMS, only promoted significant changes in the heme signals of OmcA | only promoted significant changes in the heme signals of OmcA and MtrC | PMS oxidized all the cytochromes at a rate too fast to be measured
 |  | Cc1cc2nc3c(=O)[nH]c(=O)nc-3n(C[C@H](O)[C@H](O)[C@H](O)CO)c2cc1C [RF, Riboflavin] |  | RF, FMN, and PMS, only promoted significant changes in the heme signals of OmcA | only promoted significant changes in the heme signals of OmcA and MtrC | 
